Results taken from PMC10672402 (Marine Drugs, 2023).

Experiments:
[1] = molecular target: T1, acetylcholinesterase (AChE) (Homo sapiens, UniProt P22303); test: acetylcholinesterase (AChE) inhibition, modified Ellman method; type: biochemical; details: concentration of 50 μg/mL; read-out: inhibition rate against AChE
T1 construct: purchased Solarbio, Beijing, China

pancreatic lipase (PL) = molecular target: T2, pancreatic lipase (PL) (Homo sapiens, UniProt P16233); test: pancreatic lipase (PL) inhibitory assay; type: biochemical
T2 sequence (P16233 17-465): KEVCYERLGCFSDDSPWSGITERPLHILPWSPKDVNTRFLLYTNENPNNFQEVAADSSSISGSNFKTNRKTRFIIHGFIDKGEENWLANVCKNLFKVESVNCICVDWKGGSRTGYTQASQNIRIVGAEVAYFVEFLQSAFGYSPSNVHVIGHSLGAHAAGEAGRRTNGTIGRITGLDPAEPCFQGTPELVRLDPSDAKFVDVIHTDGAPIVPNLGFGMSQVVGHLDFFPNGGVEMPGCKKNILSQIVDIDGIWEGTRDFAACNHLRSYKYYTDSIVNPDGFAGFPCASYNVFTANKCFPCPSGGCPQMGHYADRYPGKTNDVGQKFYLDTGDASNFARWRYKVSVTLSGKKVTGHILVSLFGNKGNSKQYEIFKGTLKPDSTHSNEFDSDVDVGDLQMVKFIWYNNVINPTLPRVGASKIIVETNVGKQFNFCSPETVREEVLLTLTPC

T1 sequence (P22303 32-614, species assumed): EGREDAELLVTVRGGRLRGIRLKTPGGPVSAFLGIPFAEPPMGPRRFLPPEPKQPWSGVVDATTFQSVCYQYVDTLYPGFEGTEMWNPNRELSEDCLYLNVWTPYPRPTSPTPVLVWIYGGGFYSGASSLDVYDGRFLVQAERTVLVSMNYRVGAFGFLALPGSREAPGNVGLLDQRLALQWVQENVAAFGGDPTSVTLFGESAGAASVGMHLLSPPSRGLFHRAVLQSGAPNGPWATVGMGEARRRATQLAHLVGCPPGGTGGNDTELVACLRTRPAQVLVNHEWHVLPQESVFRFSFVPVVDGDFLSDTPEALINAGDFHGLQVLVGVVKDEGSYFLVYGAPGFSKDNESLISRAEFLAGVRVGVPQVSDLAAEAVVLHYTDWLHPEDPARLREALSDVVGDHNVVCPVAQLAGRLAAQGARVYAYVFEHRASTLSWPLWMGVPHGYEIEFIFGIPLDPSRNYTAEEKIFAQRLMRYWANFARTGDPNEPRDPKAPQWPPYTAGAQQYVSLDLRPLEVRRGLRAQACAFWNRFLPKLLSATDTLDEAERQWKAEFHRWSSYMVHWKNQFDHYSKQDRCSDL

Row | SMILES | inhibition at 50 µg/mL [1] [%] | IC50 (pancreatic lipase (PL)) [µM]
1 | CCC(C)C1(O)OC(C)C2(OC)C(=O)C(C)=C(OC)C12 (centres unmarked) [Compound 1, asperpentenone B] | 20 to 26 | –
2 | C/C=C/C=C/[C@@H]1Cc2c(CC(=O)O)c(O)cc(O)c2O1 [Compound 3, asperpentenone D] | – | 127
3 | CCC(C)C(=O)Cc1oc(=O)c(C)c(O)c1C (centres unmarked) [Compound 10, paecilpyrone A] | 20 to 26 | –
4 | COC(=O)Cc1cccc(O)c1 [Compound 13, methyl-hydroxyphenylaceta] | 20 to 26 | –
5 | COc1cc(/C=C/C(=O)O)ccc1O [Compound 14, trans-ferulic acid] | 20 to 26 | –
